Reference: patent US10385048B2, “Pesticidally active polycyclic derivatives with sulfur containing substituents” (Syngenta Participations AG, priority 2014, dated 2019)

Tests used:
Type in all cases: in vivo
Spodoptera littoralis [1] = test: Spodoptera littoralis (Egyptian cotton leaf worm), uptake by lettuce roots from agar, eggs; conditions: 144 h, test rate 12.5 ppm, lettuce root uptake, 6 days after infestation, read-out: effect in at least one of the three categories (mortality, anti-feeding, or growth inhibition)
From the text: Example B9: Spodoptera littoralis (Egyptian Cotton Leaf Worm)
Test compounds were applied by pipette from 10′000 ppm DMSO stock solutions into 24-well plates and mixed with agar. Lettuce seeds were placed onto the agar and the multi well plate was closed by another plate which contained also agar. After 7 days the compound was absorbed by the roots and the lettuce grew into the lid plate. The lettuce leaves were then cut off into the lid plate. Spodoptera eggs were pipetted through a plastic stencil onto a humid gel blotting paper and the lid plate was closed with it. The samples were assessed for mortality, anti-feedant effect and growth inhibition in comparison to untreated samples 6 days after infestation.

Euschistus heros = Euschistus heros (neotropical brown stink bug), soybean leaves, N2 nymphs; conditions: 120 h, application rate 200 ppm, 5 days after infestation, read-out: effect in at least one of the two categories (mortality or growth inhibition)
Description: Example B3: Euschistus heros (Neotropical Brown Stink Bug)
Soybean leaves on agar in 24-well microtiter plates were sprayed with aqueous test solutions prepared from 10′000 ppm DMSO stock solutions. After drying the leaves were infested with N2 nymphs. The samples were assessed for mortality and growth inhibition in comparison to untreated samples 5 days after infestation.

Myzus persicae [2] = test: Myzus persicae (green peach aphid) systemic activity, pea seedling roots; conditions: 144 h, test rate 24 ppm, 6 days after placing seedlings into test solutions
[3] = tested on: Frankliniella occidentalis; test: Frankliniella occidentalis (western flower thrips) feeding/contact activity, sunflower leaf discs; conditions: foliar, 168 h, application rate 200 ppm, population of mixed ages, 7 days after infestation
Description: Example B4: Frankliniella occidentalis (Western Flower Thrips): Feeding/Contact Activity
(§1) Sunflower leaf discs were placed on agar in 24-well microtiter plates and sprayed with aqueous test solutions prepared from 10′000 DMSO stock solutions. After drying the leaf discs were infested with a Frankliniella population of mixed ages. The samples were assessed for mortality 7 days after infestation.

Anopheles stephensi = Anopheles stephensi (Indian malaria mosquito), dry deposit in 12 well plates, adult females; conditions: application rate 200 ppm in ethanol, after 48 h and/or 24 h
Description: Example B13: Anopheles stephensi (Indian Malaria Mosquito)
(§2) Test solutions, at an application rate of 200 ppm in ethanol, were applied to 12 well tissue culture plates. Once the deposits were dry, five, two to five day old adult female Anopheles stephensi were added to each well, and sustained with a 10% sucrose solution in a cotton wool plug. Assessment of knockdown was made one hour after introduction, and mortality was assessed at 24 and 48 hours after introduction.

Thrips tabaci = Thrips tabaci (onion thrips) feeding/contact activity, sunflower leaf discs; conditions: foliar, 144 h, application rate 200 ppm, population of mixed ages, 6 days after infestation
Description: Example B11: Thrips tabaci (Onion Thrips) Feeding/Contact Activity
as §1, with “10′000 ppm” for “10′000”, “thrips” for “Frankliniella”, “6” for “7”

Myzus persicae [4] = test: Myzus persicae (green peach aphid) feeding/contact activity, sunflower leaf discs; conditions: foliar, 144 h, application rate 200 ppm, 6 days after infestation
Description: Example B5: Myzus persicae (Green Peach Aphid): Feeding/Contact Activity
Sunflower leaf discs were placed onto agar in a 24-well microtiter plate and sprayed with aqueous test solutions prepared from 10′000 ppm DMSO stock solutions. After drying, the leaf discs were infested with an aphid population of mixed ages. The samples were assessed for mortality 6 days after infestation.

Aedes aegypti = Aedes aegypti (yellow fever mosquito), dry deposit in 12 well plates, adult females; conditions: application rate 200 ppm in ethanol, after 48 h and/or 24 h
Description: Example B12: Aedes aegypti (Yellow Fever Mosquito)
as §2, with “Aedes aegypti” for “Anopheles stephensi”

Plutella xylostella = Plutella xylostella (diamond back moth), artificial diet, L2 larvae; conditions: 120 h, application rate 200 ppm, 5 days after infestation, read-out: effect in at least one of the two categories (mortality or growth inhibition)
Description: Example B7: Plutella xylostella (Diamond Back Moth)
(§3) 24-well microtiter plates with artificial diet were treated with aqueous test solutions prepared from 10′000 ppm DMSO stock solutions by pipetting. After drying, the plates were infested with L2 larvae (10 to 15 per well). The samples were assessed for mortality and growth inhibition in comparison to untreated samples 5 days after infestation.

Spodoptera littoralis [5] = test: Spodoptera littoralis (Egyptian cotton leaf worm), cotton leaf discs, L1 larvae; conditions: foliar, 72 h, application rate 200 ppm, L1 larvae on cotton leaf discs, 3 days after infestation
Description: Example B8: Spodoptera littoralis (Egyptian Cotton Leaf Worm)
Cotton leaf discs were placed onto agar in 24-well microtiter plates and sprayed with aqueous test solutions prepared from 10′000 ppm DMSO stock solutions. After drying the leaf discs were infested with five L1 larvae. The samples were assessed for mortality, anti-feeding effect, and growth inhibition in comparison to untreated samples 3 days after infestation. Control of Spodoptera littoralis by a test sample is given when at least one of the categories mortality, anti-feedant effect, and growth inhibition is higher than the untreated sample.

Bemisia tabaci = Bemisia tabaci (cotton white fly) feeding/contact activity, cotton leaf discs; conditions: foliar, 144 h, application rate 200 ppm, adult white flies, 6 days after incubation
Description: Example B1: Bemisia tabaci (Cotton White Fly): Feeding/Contact Activity
Cotton leaf discs were placed on agar in 24-well microtiter plates and sprayed with aqueous test solutions prepared from 10′000 ppm DMSO stock solutions. After drying the leaf discs were infested with adult white flies. The samples were checked for mortality 6 days after incubation.

Diabrotica Balteata = test: Diabrotica balteata (corn root worm), maize sprouts, L2 larvae; conditions: 96 h, application rate 200 ppm, 4 days after infestation, read-out: effect in at least one of the two categories (mortality or growth inhibition)
Description: Example B2: Diabrotica Balteata (Corn Root Worm)
as §3, with “Maize sprouts placed onto an agar layer in 24-well” for “24-well”, “plates” for “plates with artificial diet”, “spraying.” for “pipetting.”, “(6” for “(10”, “10” for “15”, “4” for “5”

CCS(=O)(=O)c1cc(C(F)(F)F)cnc1-c1nc2cc([S+]([O-])C(F)(F)F)ncc2n1C (stereo not drawn) [Compound P9, 2-[3-ethylsulfonyl-5-(trifluoromethyl)-2-pyridyl]-3-methyl-6-(trifluoromethylsulfinyl) imidazo[4,5-c]pyridine]
≥ 80%: percent effect (mortality, anti-feeding or growth inhibition) at 12.5 ppm (Spodoptera littoralis [1]) | percent effect (mortality or growth inhibition) at 200 ppm (Euschistus heros) | mortality at 24 ppm (Myzus persicae [2]) | mortality at 200 ppm [3] | pest or weed control at 200 ppm (Anopheles stephensi) | mortality at 200 ppm (Thrips tabaci) | mortality at 200 ppm (Myzus persicae [4]) | pest or weed control at 200 ppm (Aedes aegypti) | percent effect (mortality or growth inhibition) at 200 ppm (Plutella xylostella) | percent control (mortality, anti-feedant effect or growth inhibition) at 200 ppm (Spodoptera littoralis [5]) | mortality at 200 ppm (Bemisia tabaci) | percent effect (mortality or growth inhibition) at 200 ppm (Diabrotica Balteata)

CCS(=O)(=O)c1cc(C(F)(F)F)cnc1-c1nc2cc(OCC(F)(F)F)ncc2n1C [Compound P14]
≥ 80%: percent effect (mortality or growth inhibition) at 200 ppm (Euschistus heros) | mortality at 24 ppm (Myzus persicae [2]) | mortality at 200 ppm (Myzus persicae [4])

CCS(=O)(=O)c1cc(C(F)(F)F)cnc1-c1nc2cc(OC)ncc2n1C [Compound P2]
≥ 80%: mortality at 24 ppm (Myzus persicae [2])

CCS(=O)(=O)c1cc(C(F)(F)F)cnc1-c1nc2cc([S+]([O-])CC(F)(F)F)ncc2n1C (stereo not drawn) [Compound P15, 2-[3-Ethylsulfonyl-5-(trifluoromethyl)-2-pyridyl]-3-methyl-6-(2,2,2-trifluoroethylsulfinyl)imidazo[4,5-c]pyridine]
≥ 80%: percent effect (mortality, anti-feeding or growth inhibition) at 12.5 ppm (Spodoptera littoralis [1]) | percent effect (mortality or growth inhibition) at 200 ppm (Euschistus heros) | mortality at 24 ppm (Myzus persicae [2]) | pest or weed control at 200 ppm (Anopheles stephensi) | mortality at 200 ppm (Thrips tabaci) | mortality at 200 ppm (Myzus persicae [4]) | pest or weed control at 200 ppm (Aedes aegypti) | percent effect (mortality or growth inhibition) at 200 ppm (Plutella xylostella) | percent control (mortality, anti-feedant effect or growth inhibition) at 200 ppm (Spodoptera littoralis [5]) | mortality at 200 ppm (Bemisia tabaci) | percent effect (mortality or growth inhibition) at 200 ppm (Diabrotica Balteata)

CCS(=O)(=O)c1cc(Br)cnc1-c1nc2cc(SC(F)(F)F)ncc2n1C [Compound P16]
≥ 80%: percent effect (mortality, anti-feeding or growth inhibition) at 12.5 ppm (Spodoptera littoralis [1]) | percent effect (mortality or growth inhibition) at 200 ppm (Euschistus heros) | pest or weed control at 200 ppm (Anopheles stephensi) | mortality at 200 ppm (Thrips tabaci) | mortality at 200 ppm (Myzus persicae [4]) | pest or weed control at 200 ppm (Aedes aegypti) | percent effect (mortality or growth inhibition) at 200 ppm (Plutella xylostella) | percent control (mortality, anti-feedant effect or growth inhibition) at 200 ppm (Spodoptera littoralis [5]) | mortality at 200 ppm (Bemisia tabaci) | percent effect (mortality or growth inhibition) at 200 ppm (Diabrotica Balteata)

CCS(=O)(=O)c1cc(C(F)(F)F)cnc1-c1nc2cc(OC(F)(F)Br)ncc2n1C [Compound P5, 6-[bromo(difluoro)methoxy]-2-[3-ethylsulfonyl-5-(trifluoromethyl)-2-pyridyl]-3-methyl-imidazo[4,5-c]pyridine]
≥ 80%: percent effect (mortality, anti-feeding or growth inhibition) at 12.5 ppm (Spodoptera littoralis [1]) | percent effect (mortality or growth inhibition) at 200 ppm (Euschistus heros) | pest or weed control at 200 ppm (Anopheles stephensi) | mortality at 200 ppm (Thrips tabaci) | mortality at 200 ppm (Myzus persicae [4]) | pest or weed control at 200 ppm (Aedes aegypti) | percent control (mortality, anti-feedant effect or growth inhibition) at 200 ppm (Spodoptera littoralis [5]) | mortality at 200 ppm (Bemisia tabaci) | percent effect (mortality or growth inhibition) at 200 ppm (Diabrotica Balteata)

CCSc1cc(C(F)(F)F)cnc1-c1nc2cc(OC(F)F)ncc2n1C [Compound P13, 6-(difluoromethoxy)-2-[3-ethylsulfanyl-5-(trifluoromethyl)-2-pyridyl]-3-methyl-imidazo[4,5-c]pyridine]
≥ 80%: percent effect (mortality or growth inhibition) at 200 ppm (Euschistus heros) | pest or weed control at 200 ppm (Anopheles stephensi) | mortality at 200 ppm (Myzus persicae [4]) | pest or weed control at 200 ppm (Aedes aegypti) | percent effect (mortality or growth inhibition) at 200 ppm (Plutella xylostella) | mortality at 200 ppm (Bemisia tabaci) | percent effect (mortality or growth inhibition) at 200 ppm (Diabrotica Balteata)

CCS(=O)(=O)c1cc(C(F)(F)F)cnc1-c1nc2cc(SCC(F)(F)F)ncc2n1C [Compound P17, 2-[3-Ethylsulfonyl-5-(trifluoromethyl)-2-pyridyl]-3-methyl-6-(2,2,2-trifluoroethylsulfanyl) imidazo[4,5-c]pyridine]
≥ 80%: mortality at 200 ppm (Myzus persicae [4]) | percent effect (mortality or growth inhibition) at 200 ppm (Diabrotica Balteata)

CCSc1cc(C(F)(F)F)cnc1-c1nc2cc(SC(F)(F)F)ncc2n1C [Compound P11, 2-[3-Ethylsulfanyl-5-(trifluoromethyl)-2-pyridyl]-3-methyl-6-(trifluoromethylsulfanyl)imidazo[4,5-c]pyridine]
≥ 80%: percent effect (mortality or growth inhibition) at 200 ppm (Euschistus heros) | pest or weed control at 200 ppm (Anopheles stephensi) | mortality at 200 ppm (Myzus persicae [4]) | pest or weed control at 200 ppm (Aedes aegypti) | percent effect (mortality or growth inhibition) at 200 ppm (Plutella xylostella) | percent control (mortality, anti-feedant effect or growth inhibition) at 200 ppm (Spodoptera littoralis [5]) | percent effect (mortality or growth inhibition) at 200 ppm (Diabrotica Balteata)

CCSc1cc(C(F)(F)F)cnc1-c1nc2cc(OC(F)F)ncc2n1C [Compound P7]
≥ 80%: percent control (mortality, anti-feedant effect or growth inhibition) at 200 ppm (Spodoptera littoralis [5])

CCS(=O)(=O)c1cc(C(F)(F)F)cnc1-c1nc2cc(OC(F)F)ncc2n1C [Compound P6, 6-(difluoromethoxy)-2-[3-ethylsulfonyl-5-(trifluoromethyl)-2-pyridyl]-3-methyl-imidazo[4,5-c]pyridine]
≥ 80%: mortality at 200 ppm (Thrips tabaci) | mortality at 200 ppm (Myzus persicae [4]) | percent effect (mortality or growth inhibition) at 200 ppm (Plutella xylostella) | percent control (mortality, anti-feedant effect or growth inhibition) at 200 ppm (Spodoptera littoralis [5]) | mortality at 200 ppm (Bemisia tabaci) | percent effect (mortality or growth inhibition) at 200 ppm (Diabrotica Balteata)

CCS(=O)(=O)c1cc(C(F)(F)F)cnc1-c1nc2cc(OCC(F)F)ncc2n1C [Compound P3]
≥ 80%: percent effect (mortality, anti-feeding or growth inhibition) at 12.5 ppm (Spodoptera littoralis [1]) | percent effect (mortality or growth inhibition) at 200 ppm (Euschistus heros) | mortality at 200 ppm (Myzus persicae [4]) | percent effect (mortality or growth inhibition) at 200 ppm (Plutella xylostella) | percent control (mortality, anti-feedant effect or growth inhibition) at 200 ppm (Spodoptera littoralis [5]) | percent effect (mortality or growth inhibition) at 200 ppm (Diabrotica Balteata)

CCSc1cc2nc(-c3ncc(C(F)(F)F)cc3SCC)n(C)c2cn1 [Compound P1]
≥ 80%: percent effect (mortality or growth inhibition) at 200 ppm (Euschistus heros) | percent effect (mortality or growth inhibition) at 200 ppm (Plutella xylostella) | percent effect (mortality or growth inhibition) at 200 ppm (Diabrotica Balteata)
